Data on two molecules can be found in paper PMC3004533 (Chemico-biological interactions, 2010).

This experiment has as its target T1, COX-2 (cyclooxygenase-2) (Homo sapiens, UniProt P35354).
T1 sequence (P35354 18-604): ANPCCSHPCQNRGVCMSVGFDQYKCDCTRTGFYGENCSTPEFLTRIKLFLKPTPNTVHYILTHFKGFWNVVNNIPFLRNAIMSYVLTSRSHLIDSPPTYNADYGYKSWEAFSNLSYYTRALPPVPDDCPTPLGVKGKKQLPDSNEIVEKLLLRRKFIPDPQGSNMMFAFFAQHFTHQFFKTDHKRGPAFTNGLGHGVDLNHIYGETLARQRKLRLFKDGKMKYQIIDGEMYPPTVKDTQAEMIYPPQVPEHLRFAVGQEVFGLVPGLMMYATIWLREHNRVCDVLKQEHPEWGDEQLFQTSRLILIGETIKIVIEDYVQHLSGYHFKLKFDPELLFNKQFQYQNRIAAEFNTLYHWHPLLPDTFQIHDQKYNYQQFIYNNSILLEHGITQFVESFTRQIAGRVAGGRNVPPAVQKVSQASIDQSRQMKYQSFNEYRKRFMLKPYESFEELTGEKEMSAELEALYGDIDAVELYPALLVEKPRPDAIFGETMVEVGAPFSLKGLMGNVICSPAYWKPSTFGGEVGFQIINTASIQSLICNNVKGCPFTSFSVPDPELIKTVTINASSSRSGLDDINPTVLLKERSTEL
It counts as biochemical. The conditions noted are these: read-out: Ki.

Structures are written as SMILES.

As for `Cc1ccc(-c2cc(C[Se]C#N)nn2-c2ccc(S(N)(=O)=O)cc2)cc1` [selenocoxib-2, 4-(3-Selenocyanatomethyl-5-p-tolyl-1-yl)-benzenesulfonamide], the KI (inactivation) worked out at 730 nM.
Regarding `C[Se]Cc1ccc(-c2cc(C(F)(F)F)nn2-c2ccc(S(N)(=O)=O)cc2)cc1` [selenocoxib-3, 4-[5-(4-Methylseleanylmethyl-phenyl)-3-trifluoromethyl-pyrazol-1-yl]-benezenesulfonamide], the KI (inactivation) came to 2400 nM.
